Source: US10212937B2, “Microbicidal aqueous solutions including a monochloramine and a peracid, and methods of using the same” (priority 2015, dated 2019)

Legend:
Enterobacter aerogenes = test: Microbicidal evaluation in nutrient broth, lowest concentration completely preventing growth, Kull synergism calculation; format: cell-based; settings: contact time 15 hours
Experimental: (§1) Nutrient broth (2.5 g/liter of deionized water) was prepared and dispensed in 5 ml amounts into test tubes and autoclaved for 20 minutes at 121° C. The biocides were added to the test tubes in the desired concentrations, and then 100 microliters of a 24-hour grown suspension of Pseudomonas aeruginosa or Enterobacter aerogenes cells were added to the respective test tubes to give a final count of approximately 10^6 cfu/ml and incubated at 37° C. at the indicated contact times.
(§2) End points for the various mixtures were then compared with the end points for the pure active ingredients alone in concomitantly prepared flasks or test tubes.
(§3) which produced an end point.
(§4) Qb=Lowest concentration of compound B in parts per million, acting alone,
(§5) QA=Lowest concentration of compound A in parts per million, in the mixture,
(§6) QB=Lowest concentration of compound B in parts per million, in the mixture,
(§7) When the sum of QA/Qa and QB/Qb is greater than one, antagonism is indicated. When the sum is equal to one, additivity is indicated. When the sum is less than one, synergism exists.
Contact time was 15 hours. The MCA was obtained by combinations of ammonium sulfate in the form of Oxamine 6150 or Busan 1215 (all from Buckman Laboratories, Memphis, Tenn.) and the oxidant, Bulab 6004 (from Buckman Laboratories). The peracetic acid was from Sigma-Aldrich (32 wt. % in dilute acetic acid) which was diluted in deionized water to desired concentration range prior to adding it to the test systems.

Pseudomonas aeruginosa = test: as above; format: cell-based; settings: contact time 24 hours, 37° C., approx. 10^6 cfu/ml, complete prevention of growth
Experimental: as §1, §2, §3, §4, §5, §6, §7
Contact time was 24 hours. The MCA and peracetic acid were obtained in the same manner as Example 1.

[1] = 37° C., approx. 10^6 cfu/ml, complete prevention of growth

Structure (SMILES)	QB/Qb (Enterobacter aerogenes)	Qb, lowest concentration of compound B acting alone which produced an end point (Enterobacter aerogenes; [1]) [ppm]	Qb, lowest concentration of compound B acting alone which produced an end point (Pseudomonas aeruginosa) [ppm]	Qa, concentration of compound A acting alone which produced an end point (Enterobacter aerogenes; [1]) [ppm]	Qa, concentration of compound A acting alone which produced an end point (Pseudomonas aeruginosa) [ppm]
NCl [monochloramine]	0.5	100	50		
CC(=O)OO [peracetic acid]				25.0	10
